Literature values as cited in publication PMC4128962 (Journal of controlled release : official journal of the …, 2013).

In the case of Hyaluronic acid [HA], the pKa is listed as “about 3.0”.
